Source: patent US20250269043A1, “TARGETED BIFUNCTIONAL DEGRADERS” (YALE UNIVERSITY, priority 2019, published 2025)

Columns and labels:
HepG2 cells [1] = assay: DNP-AF3-mediated α-DNP antibody endocytosis by HepG2 cells (flow cytometry); assay type: cell-based, human; settings: 40 nM DNP-AF3, 100 nM antibody; for effect of endocytic pathway inhibitors on DNP-AF3-mediated α-DNP antibody endocytosis: FIG. 106; for effect of competitive binders on DNP-AF3-mediated α-DNP antibody endocytosis: ASF 2.07 μM, AF and GalNAc 1.25 mM, FIG. 105
Procedure: The intracellular fluorescence of cells that were incubated at 37° C. with both fluorescently labeled α-DNP antibody and DNP-AF3 for a given amount of time was examined. Cells were then washed, removed from the plate with trypsin, and subjected to flow cytometry.
It was then determined if reagents which inhibit ternary complex formation inhibit endocytosis mediated by DNP-AF3.
Next, whether inhibitors of specific endocytic pathways inhibited α-DNP antibody endocytosis was determined (FIG. 106).

HepG2 cells [2] = assay: MIF-GN3-mediated endocytosis of Alexa 488-labeled human MIF by HepG2 cells; settings: for effect of endocytic pathway inhibitors on MIF-GN3-mediated MIF endocytosis: MIF 100 nM, MIF-GN3 200 nM, FIG. 132
Procedure: Human MIF protein was fluorescently labeled with Alexa 488 NHS ester, then incubated with HepG2 cells in the presence of varying levels of MIF-GN3.
The ability of MIF-GN3 to mediate MIF endocytosis over a wide range of target protein concentrations was assessed.
Next, inhibitors of various endocytic pathways were utilized to determine if MIF-GN3 mediates MIF endocytosis in a manner consistent with ASGPR (FIG. 132).

[3] = target: human IgG (Alexa 488-labeled) (human); assay: cell-based or functional assay
HepG2 cells [4] = assay: DNP-GN3-mediated endocytosis of fluorescently labeled α-DNP antibody by adherent HepG2 cells; assay type: cell-based, human; settings: sodium azide and 2-deoxyglucose as combined treatment; FIG. 89
Procedure: It was next explored whether DNP-GN3 mediates the endocytosis of fluorescently labeled α-DNP antibody.
To explore the cellular mechanism of antibody uptake, cells were treated with chemical inhibitors of several endocytic pathways (FIG. 89).

human MIF [5] = target: T1, human MIF (Homo sapiens, UniProt P14174); assay: Depletion of human MIF from cell culture supernatant (sandwich ELISA); assay type: cell-based; settings: 24 hours; FIG. 128B
T1 sequence (P14174 2-115 limits assumed): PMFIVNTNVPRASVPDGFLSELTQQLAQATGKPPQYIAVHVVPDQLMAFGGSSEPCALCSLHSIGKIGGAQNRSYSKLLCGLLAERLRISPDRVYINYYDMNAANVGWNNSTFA
Procedure: The ability of bifunctional MIF-binding molecules to mediate the depletion of human MIF from cell culture was investigated. In these assays, human MIF was present at a concentration of 100 nM, and a sandwich ELISA assay was utilized to measure the concentration of human MIF remaining in the cell culture supernatant. The closely related bifunctional molecules MIF-GN3, MIF-PEG2-GN3, and MIF-PEG4-GN3 were used, as well as the structurally dissimilar molecule MIF-NVS-PEG3-GN3. […] Based on the ease of its synthesis and its efficacy in this experiment, MIF-GN3 was utilized for further studies. It was next investigated whether the MIF inhibitor 3w mediates MIF depletion from cell culture supernatant. […] When cells were treated with 3w, no depletion of exogenous MIF protein was observed after 24 hours (FIG. 128B).
Bifunctional molecules containing optimized ASGPR-binding motifs are also capable of mediating MIF depletion from cell culture supernatant (FIG. 129). The MIF-binding molecule MIF-AF1, which contains only a single ASGPR-binding sugar, was not effective at mediating depletion of MIF from supernatant at any concentration tested. It is hypothesized that this is due to the compound's low predicted affinity for ASGPR (μM range). […] At a concentration of either 200 nM or 1 μM, MIF-AF2 mediated nearly 100%/o depletion of MLF from the cell culture supernatant after 48 hours. […] In contrast to these molecules, which utilize optimized synthetic ASGPR ligands, the GalNAc-based molecule MIF-GN3 mediated only 67.0% and 56.0% removal of MIF from supernatant after 48 hours at concentrations of 1 μM and 200 nM, respectively. […] At a concentration of 40 nM (4.0 pmol of molecule), MIF-AF3 mediates the removal of 83.2% of MIF present in the cell culture supernatant, or 8.32 pmol of human MIF protein. Therefore, it was concluded that under the conditions of this experiment, MIF-AF3 mediates the depletion of 2.08 molar equivalents of MIF protein.

PC3 cells = assay: PC3 human prostate cancer cell tumor model in mice; assay type: in vivo; settings: MIF-GN3 at 10 mpk; control arms DNP-GN3 and 3w; FIG. 138
Procedure: The ability of MIF-GN3 to mediate the depletion of MIF in a therapeutically relevant disease model was investigated. […] An experiment was conducted to determine whether the bifunctional molecule MIF-GN3 can deplete sufficient human MIF from serum to slow PC3 tumor growth. Mice were injected with an aliquot of PC3 cells, and the size of the resultant tumors as well as the levels of human MIF in serum were monitored over five weeks. […] Five weeks after the initial PC3 cell injection, the first of the mice reached maximal tumor size ([…]) and was sacrificed (FIG. 138). […] The decrease in human MIF levels mediated by MIF-GN3 is consistent with a mechanism of action in which MIF-GN3 mediates the depletion and degradation of circulating MIF protein. While the α-MIF antibody would not necessarily be expected to decrease the levels of human MIF, it is possible that the antibody mediates MIF neutralization in a manner which masks its signal as determined by ELISA. Alternatively, the α-MIF antibody may mediate depletion or degradation of huMIF by some endocytic mechanism. Another possible explanation is that the α-MIF antibody decrease serum levels of active human MIF to such an extent at early time points that PC3 cells proliferate much more slowly, and therefore fewer cells are actively secreting human MIF.
Mice were sacrificed when their tumor volumes reached 1000 mm^3. […] At this same time point, less than 25% of the mice in any other arm had survived.

human MIF [6] = target: T1, human MIF; assay: Depletion of injected recombinant human MIF from serum in mice; assay type: in vivo; set-up: injected into mice; settings: control molecules injected along with human MIF; FIG. 136
Procedure: In vivo human MIF depletion experiments were undertaken to determine whether MIF-GN3 can mediate the depletion of injected recombinant human MIF from serum in mice. Mice were injected with five μg of the human MIF protein. In this experiment, one group of mice was also injected with a single 10 mpk dose of MLF-GN3 along with human MIF protein. It was observed that after four hours, the average level of human MIF in serum in the PBS-treated mice was 1.76 ng/mL (FIG. 134). In mice treated with 10 mpk MIF-GN3, however, the concentration of human MIF in serum was 0.68 ng/mL. One day after the initial injection, human MIF levels had reached background levels for both conditions. […] It was hypothesized that, due to the short half-life of human MIF in serum, investigating human MIF levels at earlier time points may be more informative.
Next, an experiment was performed to determine whether MIF-GN3 could enhance MIF clearance at time points earlier than four hours. Mice were coinjected with recombinant human MIF and 10 mpk MIF-GN3 via either i.p. or i.v. routes. For the PBS control arms, human MIF was injected with PBS. It was observed that in the absence of MIF-GN3, there was a spike in huMIF levels in circulation after 30 minutes (FIG. 135). In the presence of MIF-GN3, however, levels of MIF protein remained low at 30 minutes and no spike in its concentration was observed. By two hours, the levels of human MIF in circulation decreased to background levels.
In a further experiment, whether an inhibitor of the MIF protein (3w) is able to mediate the protein's depletion from serum was determined. A bifunctional molecule that mediates the depletion of α-DNP antibody from serum was also assayed as a negative control. Neither of these molecules was expected to mediate the formation of a ternary complex between human MIF protein and ASGPR.

α-DNP antibody = assay: In vivo depletion of α-DNP antibody from serum in mice (ELISA); settings: FIG. 95
Procedure: FIG. 94 illustrates that serum levels of α-DNP antibody decrease more rapidly following repeated treatment with DNP-GN3. Serum antibody levels were measured using an ELISA assay. Each experimental group contained three mice. Statistical differences in experiments involving in vivo depletion of α-DNP antibody were assessed by repeated measures two-way ANOVA with Tukey's tests for post-hoc comparison of simple effects between each of the treatment groups and PBS.
Single doses of DNP-GN3 were also found to be efficacious at mediating α-DNP antibody depletion, albeit less effectively than daily dosing (FIG. 96). […] Therefore, it was concluded that DNP-GN3 is able to mediate the depletion of a monoclonal antibody from serum, and functions across a wide range of target protein concentrations and dosing regimens.
DNP-GN3 was also found to be efficacious in depleting polyclonal α-DNP antibody from serum collected from mice immunized with DNP-keyhole limpet haemocyanin (KLH) (FIG. 97). […] Thus, the small molecule DNP-GN3 is not restricted in function to only monoclonal mouse antibodies, but is also effective at removing polyclonal α-DNP antibodies from circulation in mice.

[7] = target: asialoglycoprotein receptor on the surface of immortalized human hepatocyte HepG2 cells (human) (UniProt P07306); assay: cell-based or functional assay
Sequence of asialoglycoprotein receptor on the surface of immortalized human hepatocyte HepG2 cells (human) (P07306 whole entry, chain 1 of 2): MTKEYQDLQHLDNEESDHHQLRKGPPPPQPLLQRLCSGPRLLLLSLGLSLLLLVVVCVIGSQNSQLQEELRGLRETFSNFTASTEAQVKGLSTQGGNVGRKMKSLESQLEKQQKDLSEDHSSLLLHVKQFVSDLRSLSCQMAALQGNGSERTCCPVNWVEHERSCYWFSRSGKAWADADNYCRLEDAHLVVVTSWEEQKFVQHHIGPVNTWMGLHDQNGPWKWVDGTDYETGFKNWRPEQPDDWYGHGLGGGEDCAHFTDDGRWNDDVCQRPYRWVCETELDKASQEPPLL
Sequence of asialoglycoprotein receptor on the surface of immortalized human hepatocyte HepG2 cells (human) (P07307 whole entry, chain 2 of 2, further chain): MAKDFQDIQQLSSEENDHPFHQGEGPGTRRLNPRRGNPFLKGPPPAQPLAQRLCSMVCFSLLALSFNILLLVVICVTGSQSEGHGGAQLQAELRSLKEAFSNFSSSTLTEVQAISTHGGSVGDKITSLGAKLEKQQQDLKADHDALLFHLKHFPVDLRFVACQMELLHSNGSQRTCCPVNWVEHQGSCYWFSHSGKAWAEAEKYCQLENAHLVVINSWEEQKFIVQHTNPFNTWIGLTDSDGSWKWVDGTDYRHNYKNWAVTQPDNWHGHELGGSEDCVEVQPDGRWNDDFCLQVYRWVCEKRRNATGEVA

[8] = target: asialoglycoprotein receptor on the surface of immortalized human hepatocyte HepG2 cells (human) (UniProt P07306); assay: flow cytometry competition on HepG2 cells: ASOR against DNP-AF3 (40 nM)-mediated association of α-DNP antibody (100 nM) with ASGPR

Compound | effect of endocytic pathway inhibitors on DNP-AF3-mediated α-DNP antibody endocytosis (HepG2 cells [1]) | effect of endocytic pathway inhibitors on MIF-GN3-mediated MIF endocytosis (HepG2 cells [2]) | effect of endocytic pathway inhibitors on intracellular fluorescence (DNP-GN3-mediated uptake) (HepG2 cells [4]) | also measured
COc1ccc2c(c1)c(CC(=O)O)c(C)n2C(=O)c1ccc(Cl)cc1 [indomethacin, Indomethacin] | did not significantly decrease | did not decrease |  | 
FcIII-BCN-GN3 (peptide) |  |  |  | uptake of human IgG by HepG2 cells; most effective concentration of FcIII-BCN-GN3 [3]: 1 µM
N=C(N)NC(=O)c1nc(Cl)c(N)nc1N [amiloride, Amiloride] | decrease in cellular fluorescence | did not impact cellular fluorescence significantly | did not significantly decrease | 
O=c1c(-c2ccc(O)cc2)coc2cc(O)cc(O)c12 [genistein, Genistein] | did not significantly decrease |  |  | toxicity of endocytosis inhibitors to cells (HepG2 cells [2]; HepG2 cells in the presence of MIF and MIF-GN3): toxic
FcIII-GN3 (oxidized cyclized form) (peptide) |  |  |  | uptake of Alexa 488-labeled human IgG by HepG2 cells; concentration of FcIII-GN3 giving maximal uptake [3]: 200 nM
O=CC[C@@H](O)[C@H](O)[C@H](O)CO [2-deoxyglucose] | significant decrease | decreased significantly | significantly decreased | 
OC[C@H]1O[C@@](CO)(O[C@H]2O[C@H](CO)[C@@H](O)[C@H](O)[C@H]2O)[C@@H](O)[C@@H]1O [sucrose] |  | near background levels | significantly decreased | 
C[C@@H]1[C@H](O)[C@@H](C)/C=C/C=C/CC/C=C/C=C/C=C/C=C/C(O[C@H]2O[C@H](C)[C@@H](O)[C@H](N)[C@@H]2O)CC2O[C@](O)(CC(O)C(O)CCC(O)CC(O)CC(O)CC(=O)O[C@H]1C)CC(O)C2C(=O)O (stereo partly shown) [nystatin, Nystatin] | did not significantly decrease | did not decrease | did not significantly decrease | 
Oc1ccc(-n2cc(-c3ccc4cc(OCCOCCN5CCOCC5)ccc4n3)nn2)cc1F [Compound 3w] |  |  |  | depletion of exogenous MIF protein from cell culture supernatant (human MIF [5]): no depletion; tumor growth (PC3 cells): not found to decrease tumor growth; human MIF concentration in serum compared to the PBS control (human MIF [6]): no significant decreases
CC(=O)N[C@H]1C(O)O[C@H](CO)[C@H](O)[C@@H]1O (stereo partly shown) [GalNAc, N-acetylgalactosamine] |  |  |  | effect of competitive binders on DNP-AF3-mediated α-DNP antibody endocytosis (HepG2 cells [1]): significantly decreased
O=C(CCOCC(COCCC(=O)NCCOCCOCCO)(COCCC(=O)NCCOCCOCCO)NC(=O)CNC(=O)COCCOCCOCCNc1ccc([N+](=O)[O-])cc1[N+](=O)[O-])NCCOCCOCCO [DNP-OH3] |  |  |  | antibody depletion from serum after negative control compound (α-DNP antibody): No accelerated antibody depletion; effect of competitive binders on DNP-AF3-mediated α-DNP antibody endocytosis (HepG2 cells [1]): decreased to near-background levels
C=C1[C@@H](C)[C@H]2[C@H](Cc3ccccc3)NC(=O)[C@]23[C@H](OC(C)=O)/C=C/[C@@](C)(O)C(=O)[C@@H](C)C/C=C/[C@H]3[C@@H]1O [CytD] | non-significant decrease |  |  | 
asialoorosomucoid (ligand) |  |  |  | mean fluorescence of the cell population (DNP-AF3-mediated α-DNP antibody endocytosis, HepG2, flow cytometry); about 1.31e6 without inhibitor (mean fluorescence) [7]: 466000; percent decrease of ternary complex formation at 2.38 µM ASOR [8]: 70%
CCN(c1nc(N)c(C(=O)N=C(N)N)nc1Cl)C(C)C [EIPA, 5-(N-Ethyl-N-isopropyl)amiloride] |  | significantly inhibited uptake | did not significantly decrease | 
